The test concerns COVID-19 virus. Description: Inhibition of COVID-19 virus replication in Vero E6 cells (vRNA in supernatant by qRT-PCR). The test is classed as cell-based, COVID-19 virus (clinical isolates) in Vero E6 cells. The settings on record: for antiviral effect (viral RNA replication): Vero cells infected with COVID-19 virus, MOI 0.05, compound at concentrations of 30 μM and 10 μM, FIG. 2. How it is done:
In order to further confirm the results of enzyme inhibition in vitro, whether the bromophenol-pyrazoline compounds can prevent COVID-19 virus replication in Vero E6 cells infected with clinical isolates of COVID-19 virus was evaluated in the present invention.
Specific operations: The pre-seeded Vero E6 cells (5×10^4 cells/well) were pre-treated for 1 hr with various concentrations of bromophenol-pyrazoline compounds to be tested, and then infected for 2 hrs by adding COVID-19 virus (with an MOI of 0.05). Then, the mixture of the virus and compound was removed, and the cells were further incubated in a fresh medium containing the bromophenol-pyrazoline compound. After 24 hrs, the cell supernatant was collected, and the vRNA in the supernatant was analyzed by qRT-PCR.

The EC50 is the midpoint of the concentration-response curve.

The structures appear in SMILES notation.

Turning to `CCOc1ccc(Oc2ccc(C3=NNC(c4cc(O)c(O)c(Br)c4Br)C3)cc2)cc1` (stereo not shown) [Compound 6a, 3,4-dibromo-5-(3-(4-(4-ethoxyphenoxy)phenyl)-4,5-dihydro-1H-pyrazol-5-yl)-1,2-dihydroxybenzene], the “antiviral effect (viral RNA replication)” value was “strong antiviral effects”. Further, the EC50 (Severe acute respiratory syndrome coronavirus 2, Vero C1008, read-out: EC50, inhibition of virus replication) was 4.45 µM.

Take `CCOc1ccc(Oc2ccc(C3=NN(C=O)C(c4cc(O)c(O)c(Br)c4Br)C3)cc2)cc1` (stereo not shown) [Compound 6b, 5-(2,3-dibromo-4,5-dihydroxyphenyl)-3-(4-(4-ethoxyphenoxy)phenyl)-4,5-dihydro-1H-pyrazol-1-carboxaldehyde]: the “antiviral effect (viral RNA replication)” value was “strong antiviral effects”.

With `CCOc1ccc(Oc2ccc(C3=NN(C(C)=O)C(c4cc(O)c(O)c(Br)c4Br)C3)cc2)cc1` (stereo not shown) [Compound 6c, 5-(2,3-dibromo-4,5-dihydroxyphenyl)-3-(4-(4-ethoxyphenoxy)phenyl)-4,5-dihydro-1H-1-acetyl pyrazole], the “antiviral effect (viral RNA replication)” value is “strong antiviral effects”.
